Biological target: T1, ALK5 (Homo sapiens, UniProt P36897)
T1 construct: endogenous in cells; host or cells: Hs578T (ATCC HTB-22), inferred as the cells of the reporter assay
T1 sequence (P36897 34-503): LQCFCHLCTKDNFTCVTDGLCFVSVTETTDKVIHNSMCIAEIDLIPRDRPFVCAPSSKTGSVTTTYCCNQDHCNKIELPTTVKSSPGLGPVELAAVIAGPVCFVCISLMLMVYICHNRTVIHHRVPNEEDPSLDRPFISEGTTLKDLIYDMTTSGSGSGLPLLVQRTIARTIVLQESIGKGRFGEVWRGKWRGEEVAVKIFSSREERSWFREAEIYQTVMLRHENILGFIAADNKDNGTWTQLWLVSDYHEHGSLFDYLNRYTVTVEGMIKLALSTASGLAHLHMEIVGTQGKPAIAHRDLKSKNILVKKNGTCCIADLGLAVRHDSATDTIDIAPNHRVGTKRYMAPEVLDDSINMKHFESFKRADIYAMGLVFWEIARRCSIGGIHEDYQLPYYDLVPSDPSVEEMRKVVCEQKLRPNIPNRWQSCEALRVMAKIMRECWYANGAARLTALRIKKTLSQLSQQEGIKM
Assay: Cell-based luciferase reporter assay for ALK5 activity
Conditions: (CAGA)-12-luciferase reporter, Smad 2/3-responsive promoter, 2 ng/ml TGF-β1 stimulation for 12 hours; read-out: Relative luciferase activity: IC50 value
Procedure: Human cancer cell lines Hs578T (ATCC® HTB-22™) cells were grown in DMEM (Dulbecco's modified Eagle's medium) supplemented with 10% fetal bovine serum and 1% mixture of penicillin and streptomycin (Gibco). Cells were maintained at 37° C. in a humidified 5% CO2 atmosphere.
Cell-Based Luciferase Reporter Assay for ALK5 Activity
Cells were seeded at 3×10^4/well in 24-well plates were transiently transfected with 500 ng of (CAGA)-12-luciferase reporter construct and 5 ng of pRL-TK Renilla luciferase vector (Promega, Madison, WI), an internal control for transfection efficiency, using Lipofectamine 3000 reagent (Thermo Fisher Scientific, Waltham, USA). After 24 h transfection, the cells were pre-treated with ALK5 inhibitor in dose-dependent manner. And then, Cells stimulated with 2 ng/ml recombinant TGF-β1 for 12 hours. After the stimulation, the firefly and Renilla luciferase activities were measured by Dual-Luciferase Repoter Assay (Promega).

| SMILES | IC50 |
| --- | --- |
| Cc1cccc(-c2[nH]c(CNc3cccc(Cl)c3F)nc2-c2ccn3nccc3c2)n1 [Example 1, 3-chloro-2-fluoro-N-((5-(6-methylpyridin-2-yl)-4-(pyrazolo[1,5-a]pyridin-5-yl)-1H-imidazol-2-yl)methyl)aniline] | 0.01 to 0.1 µM |
| Cc1cccc(-c2[nH]c(CNc3ccc(Cl)c(Cl)c3)nc2-c2ccn3nccc3c2)n1 [Example 2, 3,4-dichloro-N-((5-(6-methylpyridin-2-yl)-4-(pyrazolo[1,5-a]pyridin-5-yl)-1H-imidazol-2-yl)methyl)aniline] | < 0.01 µM |
| Cc1cccc(-c2[nH]c(CNc3ccccc3F)nc2-c2ccn3ncnc3c2)n1 [Example 3, N-((4-([1,2,4]triazolo[1,5-a]pyridin-7-yl)-5-(6-methylpyridin-2-yl)-1H-imidazol-2-yl)methyl)-2-fluoroaniline] | 0.01 to 0.1 µM |
| Cc1cccc(-c2[nH]c(CNc3cccc(Cl)c3F)nc2-c2ccn3ncnc3c2)n1 [Example 4, N-((4-([1,2,4]triazolo[1,5-a]pyridin-7-yl)-5-(6-methylpyridin-2-yl)-1H-imidazol-2-yl)methyl)-3-chloro-2-fluoroaniline] | < 0.01 µM |
| Cc1cccc(-c2[nH]c(CNc3ccc(Cl)c(Cl)c3)nc2-c2ccn3ncnc3c2)n1 [Example 5, N-((4-([1,2,4]triazolo[1,5-a]pyridin-7-yl)-5-(6-methylpyridin-2-yl)-1H-imidazol-2-yl)methyl)-3,4-dichloroaniline] | < 0.01 µM |
| Cc1cccc(-c2[nH]c(NCc3ccccc3F)nc2-c2ccn3nccc3c2)n1 [Example 6, N-(2-fluorobenzyl)-5-(6-methylpyridin-2-yl)-4-(pyrazolo[1,5-a]pyridine-5-yl)-1H-imidazol-2-amine] | 0.01 to 0.1 µM |
| Cc1cccc(-c2[nH]c(NCc3cccc(F)c3)nc2-c2ccn3nccc3c2)n1 [Example 7, N-(3-fluorobenzyl)-5-(6-methylpyridin-2-yl)-4-(pyrazolo[1,5-a]pyridine-5-yl)-1H-imidazol-2-amine] | 0.01 to 0.1 µM |
| Cc1cccc(-c2[nH]c(NCc3cccc(Cl)c3F)nc2-c2ccn3nccc3c2)n1 [Example 8, N-(3-chloro-2-fluorobenzyl)-5-(6-methylpyridin-2-yl)-4-(pyrazolo[1,5-a]pyridin-5-yl)-1H-imidazol-2-amine] | 0.01 to 0.1 µM |
| Cc1cccc(-c2[nH]c(NCc3ccc(Cl)cc3F)nc2-c2ccn3nccc3c2)n1 [Example 9, N-(4-chloro-2-fluorobenzyl)-5-(6-methylpyridin-2-yl)-4-(pyrazolo[1,5-a]pyridin-5-yl)-1H-imidazol-2-amine] | < 0.01 µM |
| Cc1cccc(-c2[nH]c(NCc3ccc(Cl)c(Cl)c3)nc2-c2ccn3nccc3c2)n1 [Example 10, N-(3,4-dichlorobenzyl)-5-(6-methylpyridin-2-yl)-4-(pyrazolo[1,5-a]pyridin-5-yl)-1H-imidazol-2-amine] | 0.01 to 0.1 µM |
| Cc1cccc(-c2[nH]c(NCc3ccccc3F)nc2-c2ccn3ncnc3c2)n1 [Example 11, 4-([1,2,4]triazolo[1,5-a]pyridin-7-yl)-N-(2-fluorobenzyl)-5-(6-methylpyridin-2-yl)-1H-imidazol-2-amine] | 0.01 to 0.1 µM |
| Cc1cccc(-c2[nH]c(NCc3cccc(F)c3)nc2-c2ccn3ncnc3c2)n1 [Example 12, 4-([1,2,4]triazolo[1,5-a]pyridin-7-yl)-N-(3-fluorobenzyl)-5-(6-methylpyridin-2-yl)-1H-imidazol-2ylamine] | 0.01 to 0.1 µM |
| Cc1cccc(-c2[nH]c(NCc3cccc(Cl)c3)nc2-c2ccn3ncnc3c2)n1 [Example 13, 4-([1,2,4]triazolo[1,5-a]pyridin-7-yl)-N-(3-chlorobenzyl)-5-(6-methylpyridin-2-yl)-1H-imidazol-2-amine] | 0.01 to 0.1 µM |
| Cc1cccc(-c2[nH]c(NCc3ccc(Cl)cc3)nc2-c2ccn3ncnc3c2)n1 [Example 14, 4-([1,2,4]triazolo[1,5-a]pyridin-7-yl)-N-(4-chlorobenzyl)-5-(6-methylpyridin-2-yl)-1H-imidazol-2-amine] | < 0.01 µM |
| Cc1cccc(-c2[nH]c(NCc3cccc(F)c3F)nc2-c2ccn3ncnc3c2)n1 [Example 15, 4-([1,2,4]triazolo[1,5-a]pyridin-7-yl)-N-(2,3-difluorobenzyl)-5-(6-methylpyridin-2-yl)-1-imidazol-2-ylamine] | 0.01 to 0.1 µM |
| Cc1cccc(-c2[nH]c(NCc3c(F)cccc3F)nc2-c2ccn3ncnc3c2)n1 [Example 16, 4-([1,2,4]triazolo[1,5-a]pyridin-7-yl)-N-(2,6-difluorobenzyl)-5-(6-methylpyridin-2-yl)-1H-imidazol-2-amine] | 0.01 to 0.1 µM |
| Cc1cccc(-c2[nH]c(NCc3ccc(Cl)cc3F)nc2-c2ccn3ncnc3c2)n1 [Example 17, 4-([1,2,4]triazolo[1,5-a]pyridin-7-yl)-N-(4-chloro-2-fluorobenzyl)-5-(6-methylpyridin-2-yl)-1H-imidazol-2-amine] | 0.01 to 0.1 µM |
| Cc1cccc(-c2[nH]c(NCc3cccc(Cl)c3F)nc2-c2ccn3ncnc3c2)n1 [Example 18, 4-([1,2,4]triazolo[1,5-a]pyridin-7-yl)-N-(3-chloro-2-fluorobenzyl)-5-(6-methylpyridin-2-yl)-1H-imidazol-2-amine] | < 0.01 µM |
| Cc1cccc(-c2[nH]c(NCc3cc(Cl)ccc3F)nc2-c2ccn3ncnc3c2)n1 [Example 19, 4-([1,2,4]triazolo[1,5-a]pyridin-7-yl)-N-(5-chloro-2-fluorobenzyl)-5-(6-methylpyridin-2-yl)-1H-imidazol-2-amine] | 0.01 to 0.1 µM |
| Cc1cccc(-c2[nH]c(NCc3ccc(Cl)c(Cl)c3)nc2-c2ccn3ncnc3c2)n1 [Example 20, 4-([1,2,4]triazolo[1,5-a]pyridin-7-yl)-N-(3,4-dichlorobenzyl)-5-(6-methylpyridin-2-yl)-1H-imidazol-2-amine] | < 0.01 µM |
| Cc1cccc(-c2[nH]c(NCc3ccc(Cl)cc3Cl)nc2-c2ccn3ncnc3c2)n1 [Example 21, 4-([1,2,4]triazolo[1,5-a]pyridin-7-yl)-N-(2,4-dichlorobenzyl)-5-(6-methylpyridin-2-yl)-1H-imidazol-2-amine] | 0.01 to 0.1 µM |
| COc1cccc(CNc2nc(-c3ccn4ncnc4c3)c(-c3cccc(C)n3)[nH]2)c1F [Example 22, 4-([1,2,4]triazolo[1,5-a]pyridin-7-yl)-N-(2-fluoro-3-methoxybenzyl)-5-(6-methylpyridin-2-yl)-1H-imidazol-2-amine] | 0.01 to 0.1 µM |
| COc1ccc(CNc2nc(-c3ccn4ncnc4c3)c(-c3cccc(C)n3)[nH]2)c(F)c1 [Example 23, 4-([1,2,4]triazolo[1,5-a]pyridin-7-yl)-N-(2-fluoro-4-methoxybenzyl)-5-(6-methylpyridin-2-yl)-1H-imidazol-2-amine] | 0.01 to 0.1 µM |
| CNC(=O)c1cccc(CNc2nc(-c3ccn4ncnc4c3)c(-c3cccc(C)n3)[nH]2)c1 [Example 24, 3-((4-([1,2,4]triazolo[1,5-a]pyridin-7-yl)-5-(6-methylpyridin-2-yl)-1H-imidazol-2ylamino)methyl)-N-methylbenzamide] | > 0.1 µM |
| CNC(=O)c1ccc(CNc2nc(-c3ccn4ncnc4c3)c(-c3cccc(C)n3)[nH]2)cc1 [Example 25, 4-((4-([1,2,4]triazolo[1,5-a]pyridin-7-yl)-5-(6-methylpyridin-2-yl)-1H-imidazol-2-ylamino)methyl)-N-methylbenzamide] | > 0.1 µM |
| Cc1cccc(-c2[nH]c(NC(=O)c3ccccc3F)nc2-c2ccn3ncnc3c2)n1 [Example 26, N-(4-([1,2,4]triazolo[1,5-a]pyridin-7-yl)-5-(6-methylpyridin-2-yl)-1H-imidazol-2-yl)-2-fluorobenzamide] | 0.01 to 0.1 µM |
| Cc1cccc(-c2[nH]c(NC(C)c3ccccc3F)nc2-c2ccn3ncnc3c2)n1 (stereo not drawn) [Example 27, 4-([1,2,4]tiazolo[1,5-a]pyridin-7-yl)-N-(1-(2-fluorophenyl)ethyl)-5-(6-methylpyridin-2-yl)-1H-imidazol-2-amine] | 0.01 to 0.1 µM |

— US11932639B2, “Fused ring heteroaryl compounds as ALK4/5 inhibitors” (BiSiChem Co., Ltd., priority 2019, dated 2024)
